Test results taken from patent publication US20200246284A1 (Academia Sinica, priority 2015, published 2020).
Values joined by “and” are separate entries in the source; they are usually repeats but may differ in a detail not shown here. Equal values may be shown once. Read-outs that look alike come from different tables or passages of the source.

Columns and labels:
[1] = tested on: BCI-NSI hTERT bronchial epithelium; assay: Cytotoxicity normal tissue 72 hr; assay type: cell-based, human; conditions: read-out: IC50
[2] = tested on: FTE-hTERT Fallopian epithelium; assay: Cytotoxicity normal tissue 72 hr; assay type: cell-based, human
CALU-3 = assay type: cell-based, human
CL100T1 = assay type: cell-based, human
CL141T = assay type: cell-based, human
H1395 = assay type: cell-based, human
H1755 = assay type: cell-based, human
H358 = assay type: cell-based, human
H525 = assay type: cell-based, human
HCC364 = assay type: cell-based, human
MOR = assay: Cytotoxicity NSCLC; assay type: cell-based, human
PC9 = assay type: cell-based, human
SK-LU-1 = assay type: cell-based, human
H1703 = assay type: cell-based, human
H226 = assay type: cell-based, human
H520 = assay type: cell-based, human
PC1 (jap) = assay type: cell-based, human
SK-MES-1 = assay type: cell-based, human
H128 = assay: Cytotoxicity SCLC 72 hr alamar blue; assay type: cell-based, human
H417 = assay: Cytotoxicity SCLC 72 hr alamar blue; assay type: cell-based, human
H841 = assay: Cytotoxicity SCLC 72 hr alamar blue; assay type: cell-based, human
CB CD34+ cells (+FCS) = assay: Cytotoxicity normal tissue; assay type: cell-based, human
SET2 = assay: Cytotoxicity leukemia; assay type: cell-based; conditions: Homo sapiens, SET-2; SET2 JAK2-V617 mut
CCRF-CEM = assay: Cytotoxicity leukemia; assay type: cell-based, human
SHP77 = assay: Cytotoxicity LCLC/SCLC; assay type: cell-based, human
AML cell lines = assay: Cytotoxicity, panel of AML cell lines; assay type: cell-based, human
Text: Human cord blood CD34+ cells transduced with MLL-AF9 gene: MA-10, MA-18. Human bone marrow CD34+ cells transduced with MLL-AF9 gene: MA-23. Human cord blood CD34+ cells transduced with MLL-AF9 and N-ras genes: MA-9.3, MA-9.6. • b) Growth factor independent leukemic cell lines. Human MA-10 cells transduced with Flt3 ITD (W51) were adapted to in vitro proliferation without growth factors (Moore Laboratory).

H526 xenografts = assay: SCLC H526 xenograft in NSG mice; assay type: in vivo, mouse; conditions: 30 mg/kg i.v. every second day; d30
Text: Xenografts of GFP/Luciferase-labeled H526 were established in groups of ten NSG male mice aged 12 wks by subcutaneous injection of 50,000 tumor cells.

DLBCL (GBC) cell lines = assay: Combination of BO-1055 with PUH71, TT46, bortezomib, doxorubicin (Table 25); assay type: cell-based; conditions: Homo sapiens
Mino = assay: Combination with BO-1055, MCL (Tables 28, 29); assay type: cell-based, human; conditions: read-out: IC50 single drug
SUDHL-6 = conditions: human
Description: (§1) After 72 hours, the cultures were pulsed with Alamar Blue overnight, and the fluorescent intensity of resulted cultures was measured by a Synergy H1 plate-reader (BioTek Inc).

Toledo = conditions: human
Description: as §1

[3] = for Microsome stability, turnover: 60 mins
in vitro = conditions: human, plasma
Ly18 = assay: Cytotoxicity DLBCL; conditions: read-out: cytotoxicity IC50; LY18, DLBCL GCB
Description: as §1

A204 rhabdomyosarcoma = assay: Cytotoxicity sarcoma; conditions: read-out: cytotoxic activity (IC50), A204 (rhabdoid?)
Description: as §1

LY7 (OCH-Ly7) = assay: Cytotoxicity DLBCL; conditions: read-out: cytotoxicity IC50; LY7, DLBCL GCB
JEKO-1 = assay: Cytotoxicity mantle cell lymphoma
Description: as §1

P-glycoprotein (P-gp) = P-glycoprotein (P-gp) (Homo sapiens, UniProt P08183); assay: P-gp mediated efflux in Caco-2 monolayers
Chain of P-glycoprotein (P-gp) (P08183 whole entry): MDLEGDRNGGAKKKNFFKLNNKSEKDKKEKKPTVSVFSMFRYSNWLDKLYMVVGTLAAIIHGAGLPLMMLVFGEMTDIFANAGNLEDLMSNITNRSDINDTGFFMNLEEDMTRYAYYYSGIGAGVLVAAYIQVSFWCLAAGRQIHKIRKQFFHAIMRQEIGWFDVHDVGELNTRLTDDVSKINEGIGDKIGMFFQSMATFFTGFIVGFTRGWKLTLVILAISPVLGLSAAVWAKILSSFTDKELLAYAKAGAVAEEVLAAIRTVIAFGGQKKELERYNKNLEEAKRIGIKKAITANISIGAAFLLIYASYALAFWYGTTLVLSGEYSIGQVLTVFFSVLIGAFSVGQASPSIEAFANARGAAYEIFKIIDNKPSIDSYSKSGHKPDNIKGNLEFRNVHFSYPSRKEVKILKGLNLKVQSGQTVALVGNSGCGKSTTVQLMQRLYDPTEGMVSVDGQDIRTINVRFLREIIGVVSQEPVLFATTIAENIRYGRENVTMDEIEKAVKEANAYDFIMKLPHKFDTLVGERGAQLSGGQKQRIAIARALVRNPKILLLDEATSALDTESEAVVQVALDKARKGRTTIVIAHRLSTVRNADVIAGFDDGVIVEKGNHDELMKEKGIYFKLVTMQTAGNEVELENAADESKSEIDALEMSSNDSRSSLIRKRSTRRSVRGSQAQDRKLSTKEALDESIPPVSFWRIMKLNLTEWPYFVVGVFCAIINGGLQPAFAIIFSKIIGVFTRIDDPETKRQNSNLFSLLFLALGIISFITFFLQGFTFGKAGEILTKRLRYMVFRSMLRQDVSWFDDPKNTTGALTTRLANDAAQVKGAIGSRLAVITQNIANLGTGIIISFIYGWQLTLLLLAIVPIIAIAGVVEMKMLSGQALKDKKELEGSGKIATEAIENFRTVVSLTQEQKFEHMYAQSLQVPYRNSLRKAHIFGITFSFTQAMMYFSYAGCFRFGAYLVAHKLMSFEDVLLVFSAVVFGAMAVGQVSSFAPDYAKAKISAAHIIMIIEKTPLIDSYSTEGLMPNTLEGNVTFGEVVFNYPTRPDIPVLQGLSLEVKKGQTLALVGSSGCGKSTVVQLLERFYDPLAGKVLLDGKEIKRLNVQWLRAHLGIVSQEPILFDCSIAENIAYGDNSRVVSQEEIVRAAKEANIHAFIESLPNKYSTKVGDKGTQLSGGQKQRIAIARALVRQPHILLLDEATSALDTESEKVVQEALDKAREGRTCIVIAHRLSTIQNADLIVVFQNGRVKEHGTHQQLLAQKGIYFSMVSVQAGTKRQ

For `N.N.[Cl][Pt][Cl]` [Cisplatin], the IC50 [1] was 30 µM, the IC50 [2] was 100 µM and the IC50 (CALU-3) was ≥ 100 µM. The IC50 (CL100T1) was 2.8 µM, the IC50 (CL141T) was 2.45 µM and the IC50 (H1395) was ≥ 15 µM. For the same molecule, the IC50 (H1755) was ≥ 15 µM, the IC50 (H358) was 5.9 µM and the IC50 (H525) was 7.74 µM. For the same molecule, the IC50 (HCC364) was ≥ 75 µM, the IC50 (MOR) was 3.9 µM and the IC50 (PC9) was 8.12 µM. For the same molecule, the IC50 (SK-LU-1) was 6.94 µM, the IC50 (H1703) was ≥ 20 µM and the IC50 (H226) was 2.9 µM. For the same molecule, the IC50 (H520) was 9.1 µM, the IC50 (PC1 (jap)) was ≥ 20 µM and the IC50 (SK-MES-1) was ≥ 50 µM. The IC50 (H128) was 4.79 µM, the IC50 (H417) was 2.01 µM and the IC50 (H841) was ≥ 20 µM.
In the case of `CN(C)CCNC(=O)c1cccc(NC(=O)Nc2ccc(N(CCCl)CCCl)cc2)c1` [BO-1055, Ureidomustine], the IC50 (CB CD34+ cells (+FCS); Homo sapiens, CB CD34+ cells, +FCS) is reported as > 10 µM, the IC50 (CB CD34+ cells (+FCS); Homo sapiens, normal CB CD34+, FBS/FCS or serum free) is reported as 9.9 to 10.2 µM and the IC50 (CB CD34+ cells (+FCS); normal CB CD34+, FBS/FCS or serum free) is reported as 8.5 to 10.5 µM. For the same molecule, the IC50 (SET2) was > 10 µM, the IC50 (CCRF-CEM) was 0.13 ± 0.002 µM and the IC50 (SHP77) was 40 µM. For the same molecule, the IC50 (AML cell lines; Homo sapiens, THP1 and MOLM13) was 0.18 to 0.45 µM, the “increase of cytotoxicity by MLL-AF9” value (AML cell lines; MLL-AF9 transduced vs normal CB or BM CD34+) was 25-40 fold and the tumor-free mice (H526 xenografts) was 3/5. The IC50 (DLBCL (GBC) cell lines; KARPAS-422, read-out: IC50 single agent) was 5.85 µM, the IC50 (DLBCL (GBC) cell lines; OCI-LY19, read-out: IC50 single agent) was 0.287 µM and the IC50 (DLBCL (GBC) cell lines; OCI-Ly8, read-out: IC50 single agent) was 0.224 µM. It also gave an IC50 (DLBCL (GBC) cell lines; OCI-Ly18, read-out: IC50 single agent) of 0.608 µM, an IC50 (DLBCL (GBC) cell lines; SU-DHL-4, read-out: IC50 single agent) of 1.95 µM and an IC50 (DLBCL (GBC) cell lines; SU-DHL-5, read-out: IC50 single agent) of 4.14 µM. For the same molecule, the IC50 (DLBCL (GBC) cell lines; SU-DHL-6, read-out: IC50 single agent) was 5.93 µM, the IC50 (DLBCL (GBC) cell lines; Toledo, read-out: IC50 single agent) was 8.95 µM and the IC50 (DLBCL (GBC) cell lines; read-out: IC50 single agent) was 3.19 µM. For the same molecule, the IC50 (Mino) was 0.115 µM and 0.105 µM and 0.101 µM, the IC50 (SUDHL-6) was 5.93 µM and the IC50 (Toledo) was 8.95 µM. For the same molecule, the “Microsome stability, turnover” value [3] was 75%, the “Microsome stability, turnover” value ([3]; listed as ureidomustine) was 75% (60 mins turnover %) and the “% Remaining at 60 min” value ([3]; RLM) was 25%. The “MR (metabolic rate)” value ([3]; RLM, 60 min) was 0.0203 nmol/min/mg, the fraction unbound (in vitro) was 0.01 and the fraction unbound at 2 h (in vitro) was 0.01. For the same molecule, the IC50 (Ly18) was 0.61 µM, the IC50 (A204 rhabdomyosarcoma) was 0.08 µM and the IC50 (LY7 (OCH-Ly7)) was 5.06 µM. The IC50 (JEKO-1) was 0.27 µM and the P-gp assessment (P-glycoprotein (P-gp)) was “Possible P-gp liabilities”.
